From ChEMBL document CHEMBL2073829, “Heterologous expression of a mammalian ABC transporter in plant and its application to phytoremediation” (Plant Mol Biol, 2006) come the findings set out here.

This data set concerns the target Multidrug resistance-associated protein 1 (Homo sapiens, UniProt P33527). In words: TP_TRANSPORTER: growth inhibition in hMRP1-expressing tobacco. Type of data set: functional, organism-based, (cultivar) Samsun NN. The conditions noted are these: nicotiana tabacum, in vivo.

Sequence of Multidrug resistance-associated protein 1 (P33527 whole entry): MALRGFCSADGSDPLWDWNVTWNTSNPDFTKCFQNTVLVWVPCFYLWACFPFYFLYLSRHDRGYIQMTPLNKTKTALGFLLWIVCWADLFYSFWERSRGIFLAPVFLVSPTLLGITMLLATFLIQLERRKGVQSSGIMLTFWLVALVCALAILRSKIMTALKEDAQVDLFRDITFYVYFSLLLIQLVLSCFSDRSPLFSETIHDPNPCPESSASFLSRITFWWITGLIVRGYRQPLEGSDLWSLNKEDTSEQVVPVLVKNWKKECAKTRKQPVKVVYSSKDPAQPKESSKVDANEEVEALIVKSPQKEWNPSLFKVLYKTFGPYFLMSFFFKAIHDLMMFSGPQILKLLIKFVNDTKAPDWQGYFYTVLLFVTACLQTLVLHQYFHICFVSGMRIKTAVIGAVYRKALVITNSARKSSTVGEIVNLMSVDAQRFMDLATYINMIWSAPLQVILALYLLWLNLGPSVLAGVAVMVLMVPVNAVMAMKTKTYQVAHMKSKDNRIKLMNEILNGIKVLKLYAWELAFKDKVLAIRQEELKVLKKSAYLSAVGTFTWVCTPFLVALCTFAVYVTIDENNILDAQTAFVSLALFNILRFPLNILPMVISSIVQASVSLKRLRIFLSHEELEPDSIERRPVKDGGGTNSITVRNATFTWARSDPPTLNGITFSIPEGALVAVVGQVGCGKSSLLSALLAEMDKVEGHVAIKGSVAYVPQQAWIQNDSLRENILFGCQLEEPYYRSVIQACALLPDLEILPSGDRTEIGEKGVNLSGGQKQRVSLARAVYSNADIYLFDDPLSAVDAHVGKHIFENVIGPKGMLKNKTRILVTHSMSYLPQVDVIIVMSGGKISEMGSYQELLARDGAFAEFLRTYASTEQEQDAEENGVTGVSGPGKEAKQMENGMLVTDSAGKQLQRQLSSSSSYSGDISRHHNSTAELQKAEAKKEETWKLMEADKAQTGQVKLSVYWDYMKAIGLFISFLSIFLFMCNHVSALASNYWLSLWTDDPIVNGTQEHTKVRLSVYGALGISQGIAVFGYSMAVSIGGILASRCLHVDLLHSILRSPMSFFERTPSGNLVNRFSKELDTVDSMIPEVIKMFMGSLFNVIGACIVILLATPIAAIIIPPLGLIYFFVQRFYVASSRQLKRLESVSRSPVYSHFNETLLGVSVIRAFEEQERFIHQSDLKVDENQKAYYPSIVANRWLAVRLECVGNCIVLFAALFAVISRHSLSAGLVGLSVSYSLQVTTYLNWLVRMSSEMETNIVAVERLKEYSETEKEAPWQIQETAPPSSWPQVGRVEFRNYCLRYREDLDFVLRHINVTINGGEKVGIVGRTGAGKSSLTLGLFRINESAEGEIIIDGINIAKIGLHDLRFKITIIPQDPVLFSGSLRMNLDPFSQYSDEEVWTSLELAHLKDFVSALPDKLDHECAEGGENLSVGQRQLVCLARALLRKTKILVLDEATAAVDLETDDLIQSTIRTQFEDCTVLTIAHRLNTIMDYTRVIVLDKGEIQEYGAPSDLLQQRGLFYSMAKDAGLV

For the substance CADMIUM, the Activity result is “substrate []”.
